Measured values taken from the NIST ThermoML archive (doi:10.1016/j.jct.2007.06.014).

Assay: xn = mol fraction of the nth substance listed
Conditions: Liquid, Bellows volumetry

CCCC [butane] + CCC
mass density [kg/m3]
Conditions | 280 K | 300 K | 320 K | 340 K | 360 K
1000 kPa, x2 = 0.2729 | 578.83 | – | 528 | – | –
1000 kPa, x2 = 0.5021 | 563.28 | 537.32 | – | – | –
1000 kPa, x2 = 0.7308 | 546.41 | – | – | – | –
2000 kPa, x2 = 0.2729 | 580.29 | – | 530.61 | – | 467.01
2000 kPa, x2 = 0.5021 | 564.88 | 539.48 | 511.85 | 479.55 | –
2000 kPa, x2 = 0.7308 | 548.19 | – | 489.94 | – | –
3000 kPa, x2 = 0.2729 | 581.81 | – | 533.12 | – | 472.48
3000 kPa, x2 = 0.5021 | 566.5 | 541.56 | 514.73 | 483.91 | 445.79
3000 kPa, x2 = 0.7308 | 550.07 | – | 493.41 | – | 409.73
5000 kPa, x2 = 0.2729 | 584.56 | – | 537.8 | – | 481.94
5000 kPa, x2 = 0.5021 | 569.65 | 545.62 | 519.99 | 491.54 | 458.29
5000 kPa, x2 = 0.7308 | 553.51 | – | 499.74 | – | 428.83
10000 kPa, x2 = 0.2729 | 591.21 | – | 548.01 | – | 499.9
10000 kPa, x2 = 0.5021 | 576.66 | 554.42 | 531.57 | 506.78 | 480.01
10000 kPa, x2 = 0.7308 | 561.23 | – | 512.85 | – | 456.8
20000 kPa, x2 = 0.2729 | 602.5 | – | 564.4 | – | 524.51
20000 kPa, x2 = 0.5021 | 588.96 | 569.12 | 549.41 | 528.92 | –
20000 kPa, x2 = 0.7308 | 574.44 | – | 532.72 | – | –
30000 kPa, x2 = 0.2729 | 612.44 | – | 577.65 | – | –
30000 kPa, x2 = 0.5021 | 599.33 | 581.32 | 563.54 | 545.35 | –
30000 kPa, x2 = 0.7308 | 585.33 | – | 547.73 | – | –
40000 kPa, x2 = 0.2729 | 621.14 | – | 588.82 | – | –
40000 kPa, x2 = 0.5021 | 608.38 | 591.53 | 575.17 | 558.59 | –
40000 kPa, x2 = 0.7308 | 594.97 | – | 560.18 | – | –
50000 kPa, x2 = 0.2729 | 628.91 | – | 598.52 | – | –
50000 kPa, x2 = 0.5021 | 616.39 | 600.55 | 585.24 | 569.82 | –
50000 kPa, x2 = 0.7308 | 603.42 | – | 570.96 | – | –
60000 kPa, x2 = 0.2729 | 635.9 | – | 607.13 | – | –
60000 kPa, x2 = 0.5021 | 623.79 | 608.7 | 594.24 | 579.76 | –
60000 kPa, x2 = 0.7308 | 611.1 | – | 580.28 | – | –
70000 kPa, x2 = 0.2729 | 642.5 | – | 614.83 | – | –
70000 kPa, x2 = 0.5021 | 630.58 | 616.01 | 602.33 | 588.57 | –
70000 kPa, x2 = 0.7308 | 618.12 | – | 588.77 | – | –
80000 kPa, x2 = 0.2729 | 648.79 | – | 622.08 | – | –
80000 kPa, x2 = 0.5021 | 636.93 | 622.84 | 609.65 | 596.66 | –
80000 kPa, x2 = 0.7308 | 624.55 | – | 596.34 | – | –
90000 kPa, x2 = 0.2729 | 654.49 | – | 628.57 | – | –
90000 kPa, x2 = 0.5021 | 642.73 | 629.02 | 616.63 | 603.93 | –
90000 kPa, x2 = 0.7308 | 630.61 | – | 603.52 | – | –
100000 kPa, x2 = 0.2729 | 659.68 | – | 634.85 | – | –
100000 kPa, x2 = 0.5021 | 648.26 | 635.14 | 623.18 | 610.72 | –
100000 kPa, x2 = 0.7308 | 636.39 | – | 610.01 | – | –
120000 kPa, x2 = 0.2729 | 669.67 | – | 646.16 | – | –
120000 kPa, x2 = 0.5021 | 658.24 | 646 | 634.71 | 622.95 | –
120000 kPa, x2 = 0.7308 | 646.6 | – | 621.8 | – | –
140000 kPa, x2 = 0.2729 | 678.58 | – | 656.29 | – | –
140000 kPa, x2 = 0.5021 | 667.41 | 655.77 | 644.69 | 634.01 | –
140000 kPa, x2 = 0.7308 | 656.14 | – | 632.64 | – | –
160000 kPa, x2 = 0.2729 | 686.88 | – | 665.5 | – | –
160000 kPa, x2 = 0.5021 | 675.8 | 664.45 | 654.03 | 643.77 | –
160000 kPa, x2 = 0.7308 | 664.71 | – | 642.48 | – | –
180000 kPa, x2 = 0.2729 | 694.53 | – | 673.94 | – | –
180000 kPa, x2 = 0.5021 | 683.54 | 672.59 | 662.68 | 652.74 | –
180000 kPa, x2 = 0.7308 | 672.47 | – | 651.07 | – | –
200000 kPa, x2 = 0.2729 | 701.52 | – | 681.74 | – | –
200000 kPa, x2 = 0.5021 | 690.83 | 680.14 | 670.56 | 660.89 | –
200000 kPa, x2 = 0.7308 | 679.87 | – | 659.14 | – | –
